Data taken from patent US9695155B2, “Herbicidal substituted pyrimidinyloxy benzene compounds” (E. I. DU PONT DE NEMOURS AND COMPANY, priority 2013, dated 2017).

Assays:
[1] = tested on: kochia; test: Test D preemergence; type: in vivo, Kochia scoparia; details: Bassia scoparia, pre-emergence
Excerpt: (§1) Seeds of plant species selected from bluegrass (annual bluegrass, Poa annua), blackgrass (Alopecurus myosuroides), canarygrass (littleseed canarygrass, Phalaris minor), chickweed (common chickweed, Stellaria media), galium (catchweed bedstraw, Galium aparine), bromegrass, downy (downy bromegrass, Bromus tectorum), field poppy (Papaver rhoeas), field violet (Viola arvensis), green foxtail (Setaria viridis), deadnettle (henbit deadnettle, Lamium amplexicaule), Italian ryegrass (Lolium multiflorum), kochia (Kochia scoparia), lambsquarters (Chenopodium album), oilseed rape (Brassica napus), pigweed (Amaranthus retroflexus), chamomile (scentless chamomile, Matricaria inodora), Russian thistle (Salsola kali), speedwell (bird's-eye speedwell, Veronica persica), spring barley (Hordeum vulgare), spring wheat (Triticum aestivum), wild buckwheat (Polygonum convolvulus), wild mustard (Sinapis arvensis), wild oat (Avena fatua), wild radish (Raphanus raphanistrum), windgrass (Apera spica-venti), winter barley (Hordeum vulgare), and winter wheat (Triticum aestivum) were planted into a silt loam soil and treated preemergence with test chemicals formulated in a non-phytotoxic solvent mixture which included a surfactant.
(§2) At the same time, these species were planted in pots containing Redi-Earth® planting medium (Scotts Company, 14111 Scottslawn Road, Marysville, Ohio 43041) comprising spaghnum peat moss, vermiculite, wetting agent and starter nutrients and treated with postemergence applications of the test chemicals formulated in the same manner. Plants ranged in height from 2 to 18 cm (1- to 4-leaf stage). Treated plants and controls were maintained in a controlled growth environment for 7 to 21 days after which time all species were compared to controls and visually evaluated. Plant response ratings, summarized in Table D, are based on a scale of 0 to 100 where 0 is no effect and 100 is complete control. A dash (-) response means no test result.

[2] = tested on: spring barley; test: Test D preemergence; type: in vivo, Hordeum vulgare; details: Hordeum vulgare, pre-emergence
Excerpt: as §1, §2

[3] = tested on: winter barley; test: Test D preemergence; type: in vivo, Hordeum vulgare; details: Hordeum vulgare, pre-emergence
Excerpt: as §1, §2

[4] = tested on: chickweed; test: Test D postemergence; type: in vivo, Stellaria media; details: Stellaria media, post-emergence
Excerpt: as §1, §2

[5] = tested on: pigweed; test: Test D preemergence; type: in vivo, Amaranthus retroflexus; details: Amaranthus retroflexus, pre-emergence
Excerpt: as §1, §2

[6] = tested on: galium; test: Test D preemergence; type: in vivo, Galium aparine; details: Galium, pre-emergence
Excerpt: as §1, §2

[7] = tested on: field poppy; test: Test D postemergence; type: in vivo, Papaver rhoeas; details: Papaver rhoeas, post-emergence
Excerpt: as §1, §2

[8] = tested on: lambsquarters; test: Test D preemergence; type: in vivo, Chenopodium album; details: Chenopodium album, pre-emergence
Excerpt: as §1, §2

[9] = tested on: chamomile; test: Test D preemergence; type: in vivo, Matricaria inodora; details: Tripleurospermum inodorum, pre-emergence
Excerpt: as §1, §2

SMILES: Fc1cccc(Oc2ncc(Cl)cn2)c1-n1cc(C(F)F)nn1 [Compound 141, 5-chloro-2-[2-[4-(difluoromethyl)-1H-1,2,3-triazol-1-yl]-3-fluorophenoxy]pyrimidine]
- pest or weed control at 16 g/ha ([1]; 16 g ai/ha, scale 0 (no effect) to 100 (complete control), read-out: Plant response rating, Kochia): 85%
- pest or weed control at 31 g/ha ([1]; 31 g ai/ha, scale 0-100, read-out: Plant response rating, Kochia): 100%
- pest or weed control at 62 g/ha ([1]; 62 g ai/ha, scale 0-100, read-out: Plant response rating, Kochia): 100%
- pest or weed control at 125 g/ha ([1]; 125 g ai/ha, scale 0-100, read-out: Plant response rating, Kochia): 100%
- plant injury at 16 g/ha ([2]; 16 g ai/ha, scale 0 (no effect) to 100 (complete control), read-out: Plant response rating, Barley, Spring): 15%
- plant injury at 31 g/ha ([2]; 31 g ai/ha, scale 0-100, read-out: Plant response rating, Barley, Spring): 20%
- plant injury at 62 g/ha ([2]; 62 g ai/ha, scale 0-100, read-out: Plant response rating, Barley, Spring): 65%
- plant injury at 125 g/ha ([2]; 125 g ai/ha, scale 0-100, read-out: Plant response rating, Barley, Spring): 90%
- plant injury at 16 g/ha ([3]; 16 g ai/ha, scale 0 (no effect) to 100 (complete control), read-out: Plant response rating, Barley, Winter): 15%
- plant injury at 31 g/ha ([3]; 31 g ai/ha, scale 0-100, read-out: Plant response rating, Barley, Winter): 35%
- plant injury at 62 g/ha ([3]; 62 g ai/ha, scale 0-100, read-out: Plant response rating, Barley, Winter): 65%
- plant injury at 125 g/ha ([3]; 125 g ai/ha, scale 0-100, read-out: Plant response rating, Barley, Winter): 90%
- pest or weed control at 16 g/ha ([4]; 16 g ai/ha, scale 0-100, read-out: Plant response rating, Chickweed): 70%
- pest or weed control at 31 g/ha ([4]; 31 g ai/ha, scale 0 to 100 (0 no effect, 100 complete control), read-out: Plant response rating, Chickweed): 90%
- pest or weed control at 62 g/ha ([4]; 62 g ai/ha, scale 0 to 100 (0 no effect, 100 complete control), read-out: Plant response rating, Chickweed): 95%
- pest or weed control at 125 g/ha ([4]; 125 g ai/ha, scale 0 to 100 (0 no effect, 100 complete control), read-out: Plant response rating, Chickweed): 100%
- pest or weed control at 16 g/ha ([5]; 16 g ai/ha, scale 0 (no effect) to 100 (complete control), read-out: Plant response rating, Pigweed): 98%
- pest or weed control at 31 g/ha ([5]; 31 g ai/ha, scale 0 (no effect) to 100 (complete control), read-out: Plant response rating, Pigweed): 100%
- pest or weed control at 62 g/ha ([5]; 62 g ai/ha, scale 0-100, read-out: Plant response rating, Pigweed): 100%
- pest or weed control at 125 g/ha ([5]; 125 g ai/ha, scale 0-100, read-out: Plant response rating, Pigweed): 100%
- pest or weed control at 16 g/ha ([6]; 16 g ai/ha, scale 0 (no effect) to 100 (complete control), read-out: Plant response rating, Galium): 75%
- pest or weed control at 31 g/ha ([6]; 31 g ai/ha, scale 0-100, read-out: Plant response rating, Galium): 100%
- pest or weed control at 62 g/ha ([6]; 62 g ai/ha, scale 0-100, read-out: Plant response rating, Galium): 100%
- pest or weed control at 125 g/ha ([6]; 125 g ai/ha, scale 0-100, read-out: Plant response rating, Galium): 100%
- pest or weed control at 16 g/ha ([7]; 16 g ai/ha, scale 0-100, read-out: Plant response rating, Field Poppy): 40%
- pest or weed control at 31 g/ha ([7]; 31 g ai/ha, scale 0 to 100 (0 no effect, 100 complete control), read-out: Plant response rating, Field Poppy): 95%
- pest or weed control at 62 g/ha ([7]; 62 g ai/ha, scale 0 to 100 (0 no effect, 100 complete control), read-out: Plant response rating, Field Poppy): 90%
- pest or weed control at 125 g/ha ([7]; 125 g ai/ha, scale 0 to 100 (0 no effect, 100 complete control), read-out: Plant response rating, Field Poppy): 85%
- pest or weed control at 16 g/ha ([8]; 16 g ai/ha, scale 0 (no effect) to 100 (complete control), read-out: Plant response rating, Lambsquarters): 100%
- pest or weed control at 31 g/ha ([8]; 31 g ai/ha, scale 0-100, read-out: Plant response rating, Lambsquarters): 100%
- pest or weed control at 62 g/ha ([8]; 62 g ai/ha, scale 0-100, read-out: Plant response rating, Lambsquarters): 100%
- pest or weed control at 125 g/ha ([8]; 125 g ai/ha, scale 0-100, read-out: Plant response rating, Lambsquarters): 100%
- pest or weed control at 16 g/ha ([9]; 16 g ai/ha, scale 0 (no effect) to 100 (complete control), read-out: Plant response rating, Chamomile): 90%
- pest or weed control at 31 g/ha ([9]; 31 g ai/ha, scale 0-100, read-out: Plant response rating, Chamomile): 100%
- pest or weed control at 62 g/ha ([9]; 62 g ai/ha, scale 0-100, read-out: Plant response rating, Chamomile): 70%
- pest or weed control at 125 g/ha ([9]; 125 g ai/ha, scale 0-100, read-out: Plant response rating, Chamomile): 100%
